# Data: article PMC13439108, “An antibody–drug conjugate active against antibiotic-resistant Neisseria gonorrhoeae” (Proceedings of the National Academy of Sciences of the …, 2026)
# Where a SMILES comes first, the peptide text is derived from it. [ ]: non-standard residue; d: D form. The star is where a group is joined. d(aIle) = CC[C@H](C)[C@@H](N)C(=O)O; dDab = NCC[C@@H](N)C(=O)O; Octanoyl = CCCCCCCC(=O)*; Dab = NCC[C@H](N)C(=O)O; AEEA = NCCOCCOCC(=O)O
# Tests used:
# [1] = test system: N. gonorrhoeae FA1090ΔIgAP; settings: microdilution in FB, ~5 × 10^4 CFU, 24 hr, 37°C, 5% CO2
# Method: (§1) columns (ThermoFisher scientific). Activated mAb was added to 0.9 mg of Oct-TriA1 analogues (synthesised by ISCA Biochemicals, UK) and incubated at room temperature for 60 min. ADCs were dialysed using slide-A-Lyzer cassette (20K MWCO, ThermoFisher scientific) into PBS overnight at 4 °C […]
# (§2) MALDI-TOF MS analysis for determination of intact mass mAbs or ADCs with a concentration of 1 mg/mL were acidified with 1% trifluoroacetic acid and mixed with Super DHB matrix, 1 μl was spotted onto an MTP Anchorchip 600/384. For every mAb, three sample spots were prepared from the same solution using three protocols advised by the manufacturer. MALDI-TOF measurements were performed on a Microflex LRF mass spectrometer, equipped with a 60Hz nitrogen laser at 337nm. Number of peptides conjugated was calculated using the MALDI-TOF molecular weights (MW) [MW = M+] of each ADC, the unconjugated antibody (mAb), and the molecular weights of Oct-TriA1 analogues using the following equation.
# (§3) Number of peptides = MW ADC − MW mAb […]
# (§4) Determination of Oct-TriA1 Minimum Inhibitory Concentration (MIC)
# (§5) N. gonorrhoeae was resuspended in PBS to an ODA600 1.0, and ̴5 × 10^4 CFU added to wells of a microdilution plate containing dilutions of antimicrobials in FB. Plates were incubated for 24 hr at […]
# (§6) 37°C, in 5% CO2 then 10 μl aliquots plated onto GCB agar. The MIC was defined as the lowest concentration of an antimicrobial that prevented bacterial growth. […]
# (§7) Peptide concentration in ADC preparations
# (§8) Peptide concentrations for ADCs were calculated from the antibody concentration, the drug-to-antibody ratio (DAR), and the peptide molecular weight using the following formula:
# (§9) Conc. peptide (µg/mL) = Conc. ADC (µg/mL) × DAR x MWpeptide (Da) […]
# (§10) Where Conc. ADC is the ADC/ mAb concentration, MWADC is the mAb molecular weight (150 kDa), MWpeptide is the peptide molecular weight and DAR is the average number of peptides per conjugate.
# (§11) This formula was used to convert ADC concentrations to peptide concentrations for all assays. […]
# N. gonorrhoeae WHO N = settings: microdilution in FB, ~5 × 10^4 CFU, 24 hr, 37°C, 5% CO2
# Method: as §1, §2, §3, §4, §5, §6, §7, §8, §9, §10, §11
# N. gonorrhoeae FA1090 = experiment: Time-to-kill assay; format: cell-based, Neisseria gonorrhoeae; settings: FA1090, 50 μg mL^−1 of the AMP, GW medium; n = 3
# Method: (§12) Fig. 4. […] (C) Time-to-kill curve analysis with ADCs protocol. N. gonorrhoeae were grown for 24 h prior to harvesting supernatant with or without IgAP, wild-type, and ΔigAP, respectively. Supernatant was dialyzed into fresh media prior to inoculating with respective N. gonorrhoeae strains. After 3 h growth, ADCs or peptides were added, and CFU/mL was calculated every 30 min for 4 h. […] All data shown are the mean ± SD of CFU/ml (n = 3).
# (§13) 37°C, in 5% CO2 then 10 μl aliquots plated onto GCB agar. The MIC was defined as the lowest concentration of an antimicrobial that prevented bacterial growth.
# (§14) Determination of N. gonorrhoeae resistance to Oct-TriA1
# (§15) Single colonies of N. gonorrhoeae FA1090 were inoculated into 2 mL of FB media supplemented with 1% Vitox (Oxoid) and grown overnight. After 24 hours, 240 µl of a 1/ 5,000 dilution of FA1090 in 2x FB was added to a 48-well plate containing 2-fold dilutions of either Oct-TriA1-c (final concentration, 12.5 µg/ml to 0.2 µg/ml) or ciprofloxacin (final concentration, 16.4 to 0.001 µg/ml) in a total volume of 480
# (§16) µl. Plates were incubated at 37 °C, 5% CO2 with shaking (180 rpm). After 24 hours, ODA600 of each well […]
# (§17) Peptide concentrations for ADCs were calculated from the antibody concentration, the drug-to-antibody ratio (DAR), and the peptide molecular weight using the following formula: […]
# [2] = test system: N. gonorrhoeae G97687 (MDR strain); experiment: Time-to-kill assay; format: cell-based, Neisseria gonorrhoeae; settings: G97687, peptide 50 μg mL^−1, GW medium; n = 3
# Method: as §12, §13, §14, §15, §16, §17
# HK-2 cells [3] = experiment: LDH release cytotoxicity; format: cell-based, human; settings: n = 3
# Method: HK-2 cells (CRL-2190™, Americab Type Culutre Collection (ATCC)), a proximal renal tubule cell(7), and End1/E6E7 (CRL-2615™, ATCC) upper cervical epithelial cells(8) were cultured in Keratinocyte Serum Free Medium (Invitrogen, Life Technologies Ltd.) with human recombinant EGF (5 ng ml-1) and bovine pituitary extract (0.05 mg ml−1) at 37°C in 5% CO2. Cells were seeded in 96-well plates (Corning, Polystyrene) at a density of 2 × 10^4 cells/well 24 hr prior; Triton-X-100 (0.1%) and Digitonin (30 μg ml−1) were used as controls. Lactate dehydrogenase (LDH) release was measured using the Biovision kit; the OD490 was assessed in a SpectraMax M5 plate reader. […]
# [4] = test system: N. gonorrhoeae G97687 (MDR isolate); settings: G97687, MDR isolate resistant to ESCs and azithromycin; microdilution in FB, 24 hr, 37°C, 5% CO2
# Method: as §4, §5, §6, §7, §8, §9, §10, §11
# HK-2 cells [5] = experiment: MTT cell viability; format: cell-based, human; settings: n = 3
# Method: HK-2 cells (CRL-2190™, Americab Type Culutre Collection (ATCC)), a proximal renal tubule cell(7), and End1/E6E7 (CRL-2615™, ATCC) upper cervical epithelial cells(8) were cultured in Keratinocyte Serum Free Medium (Invitrogen, Life Technologies Ltd.) with human recombinant EGF (5 ng ml-1) and bovine pituitary extract (0.05 mg ml−1) at 37°C in 5% CO2. […]
# Cell viability was assessed by 3-(4,5-dimethylthiazol-2-yl)-2,5-diphenyl-2H-tetrazolium bromide (MTT) assay(9); 200 µl fresh cell media and 250 µg of MTT was added to cells. Plates were Incubated at 37 °C, 5% CO2 for 3 hr then 200 µl of DMSO was added to wells with 25 µl glycine buffer (0.1 M glycine, 0.1 M NaCl pH 10.5) and shaken at 1000 r.p.m. for 10 min. Absorbance was read at OD570 nm. Cell viability was calculated as (sample absorbance – cell free blank/media control absorbance) x100.
structure (smiles),measurement,setting,value
CCCCCCCC(=O)N[C@@H](C(=O)N[C@H](CCN)C(=O)NCC(=O)N[C@H](CO)C(=O)N[C@H](Cc1c[nH]c2ccccc12)C(=O)N[C@@H](CO)C(=O)N[C@@H](CCN)C(=O)N[C@H](CCN)C(=O)N[C@@H](Cc1ccccc1)C(=O)N[C@@H](CCC(=O)O)C(=O)N[C@H](C(=O)N[C@@H](C(=O)N[C@@H](C)C(=O)NCCOCCOCC(=O)N[C@@H](CC(C)C)C(=O)N1CCC[C@H]1C(=O)N[C@@H](CCCNC(=N)N)C(=O)N1CCC[C@H]1C(=O)N1CCC[C@H]1C(=O)O)[C@@H](C)CC)C(C)C)C(C)C [Oct-TriA1-c] (Octanoyl-[dV][dDab]G[dS][dW]S[Dab][dDab]FEV[d(aIle)]A[AEEA]LPRPP-OH),MIC,[1],0.78 µg/mL
same,MIC,N. gonorrhoeae WHO N,3.13 µg/mL
same,time to undetectable survival,N. gonorrhoeae FA1090,60 min
same,time to no survival,[2],180 min
same,LDH (EC50) 4 h,"HK-2 cells [3]; 2 × 10^4 cells/well, LDH release OD490, 4 h",86.42 µg/mL
same,LDH (EC50) 24 h,"HK-2 cells [3]; LDH release OD490, 24 h",57.71 µg/mL
same,LDH (EC50) 48 h,"HK-2 cells [3]; LDH release OD490, 48 h",50.03 µg/mL
same,MIC,[4],1.56 µg/mL
same,MTT (EC50) 4 h,"HK-2 cells [5]; MTT reduction OD570, 4 h",101.98 µg/mL
same,MTT (EC50) 24 h,"HK-2 cells [5]; MTT reduction OD570, 24 h",78.78 µg/mL
same,MTT (EC50) 48 h,"HK-2 cells [5]; MTT reduction OD570, 48 h",61.09 µg/mL
